{"source": "paper PMC6527222", "about": "(PLoS ONE, 2019)", "key": {"α1D-AR": {"target": "α1D-AR", "conditions": "read-out: Kd towards the α1D-AR; cited from earlier work"}, "A549, lung tumor, cells": {"test_system": "A549, lung tumor, cells", "conditions": "cited from earlier work"}, "JB6 P+ cells [1]": {"test_system": "JB6 P+ cells", "assay": "MTS cell proliferation assay", "assay_type": "cell-based, mouse", "conditions": "two weeks", "description": "Cell viability was determined by the addition of MTS reagent according to the manufacturer’s protocol (Promega, Madison, WI) and absorbance was measured using a Bio-Tek μQuant plate reader with KCJunior software. […] Normalization allowed for comparison of data over a range of JB6 P+ cell cultures, passages, and experimental time for the shRNA studies, as well as control for variation in the EGF response, and importantly allowed for a direct comparison to all concentration-response experiments including the toxicity assays. Data are expressed as mean ± SD and were analyzed using GraphPad Prism version 7.02 (La Jolla, CA). All group sizes were determined via previous studies to provide statistically meaningful data. In the soft agar assays, key results were repeated with different JB6 P+ cells to confirm the results. Similarly, the shRNA studies were conducted with three independent concentration-response curves with different JB6 P+ cell stocks. Statistical analysis of raw data was conducted with NCSS 2007 (Kaysville, UT). For two sample comparisons a t-test was utilized, and when comparing multiple samples a One-, Two-, or Three-Factor ANOVA followed by Tukey-Kramer post hoc test was utilized depending on the data. For all tests, statistical difference was donated when p < 0.05."}, "[2]": {"test_system": "hairless mice (UV-induced skin thickening)", "assay": "Eight dose UV exposure, bi-folded epidermal thickness in hairless wild type and β2-AR knockout mice", "assay_type": "in vivo, mouse", "conditions": "5 μM in 200 μL acetone topically every other day, 200 mJ/cm^2 UV, eight irradiations", "description": "The Western University of Health Sciences’ Institutional Animal Care and Use Committee (WesternU IACUC) approved all animal studies prior to initiating any experiments. The animal studies were carried out under WesternU IACUC recommendations and guidelines, which follow NIH guidelines. Mice had access to water and food ad libitum and housed on a 12-hour light/dark cycle with 35% humidity. Homozygous β1-AR and β2-AR null mice (Adrb1^tm1Bkk Adrb2^tm1Bkk/J Stock Number 003810) were purchased from Jackson Laboratory (Bar Harbor, ME); the double knockout mice were characterized previously. The double knockout mice were bred with C57BL/6J from Jackson Lab to generate a heterozygous F1 generation. The F1 generation was bred together to generate the F2 generation of which 1/16th of the offspring were a β2-AR knockout mouse. SKH-1 mice purchased from Charles River (Wilmington, MA) were bred with the β2-AR knockout mice generating a second heterozygous F1 generation. The F1 generation was bred together to generate the F2 generation of which 1/16th of the offspring were a hairless β2-AR knockout mouse. The F2 generation was backcrossed with a new batch of SKH-1 from Charles River to generate mice more efficiently. The mice used in this study are 75% SKH-1 and 25% mixed background. Following experimentation, and to cull the unused mice in a colony, mice were euthanized via exposure to 32% Isoflurane followed by cervical dislocation to ensure euthanization prior to disposal.\nThe first two weeks were pretreatment and the second two weeks were during the UV irradiation procedure, but drugs were applied the day after UV exposure to avoid sunscreen effects. All groups involved with UV were irradiated with 200 mJ/cm^2 dose of UV every other day for a total of eight irradiations. Bi-folded epidermal thickness was measured using a digital caliper before drug treatment on non-radiation days. Three skin thickness measurements were taken along the left, middle, and right dorsal epidermal layer, and the mean thickness was recorded for each mouse."}, "JB6 P+ cells [3]": {"test_system": "JB6 P+ cells", "assay": "SRB cytotoxicity assay", "assay_type": "cell-based, mouse", "conditions": "72 hr; NT = no toxicity at any concentration tested", "description": "96-well plates were seeded with 3x10^3 JB6 P+ cells per well and allowed to attach overnight. […] Cell viability was determined using Sulforhodamine B (SRB) assay from Sigma-Aldrich according to the manufacturer’s protocol. Cellular protein content was measured using a Bio-Tek μQuant plate reader with KCJunior software.\nConcentration-response curves were normalized so that the EGF positive control on each 96-well plate was set to 100% and the control wells on each plate were set to 0%. Toxicity assays (SRB and MTS) were normalized so that the control on each plate represented 100% viability. Normalization allowed for comparison of data over a range of JB6 P+ cell cultures, passages, and experimental time for the shRNA studies, as well as control for variation in the EGF response, and importantly allowed for a direct comparison to all concentration-response experiments including the toxicity assays. […] All group sizes were determined via previous studies to provide statistically meaningful data. In the soft agar assays, key results were repeated with different JB6 P+ cells to confirm the results. Similarly, the shRNA studies were conducted with three independent concentration-response curves with different JB6 P+ cell stocks. […] For two sample comparisons a t-test was utilized, and when comparing multiple samples a One-, Two-, or Three-Factor ANOVA followed by Tukey-Kramer post hoc test was utilized depending on the data. For all tests, statistical difference was donated when p < 0.05.\nThe IΔ2*PSD is expressed in x-axis units (log [M]) as is an IC50 and it represents the first concentration where it is expected to observe a statistical decrease in the measured signal.\nUsing the formula provided by GraphPad Prism or a straight line for the point-to-point graphs, the X-axis value for point Y was determined. The error is ascribed to this measurement via adding and subtracting the pooled standard deviation (PSD) to/from point Y generating point Y ± PSD. The two new points were then transformed to the X-axis units as was done for point Y creating an asymmetric error in sigmoidal plots. When the error was asymmetric, the larger error value was chosen to err on the conservative side. See S1 Fig for a pictoral explination of the method. The data is presented as IΔ2*PSD ± error."}, "JB6 P+ cells [4]": {"test_system": "JB6 P+ cells", "conditions": "previous data, cited from earlier work"}}, "data": [{"smiles": "COc1ccccc1OCCNCC(O)COc1cccc2[nH]c3ccccc3c12", "note": "(stereo not drawn) [Carvedilol]", "values": [{"measurement": "Kd", "setting": "α1D-AR", "result": 1.2, "unit": "nM"}, {"measurement": "reducing the growth of injected A549 cells in vivo, words", "setting": "A549, lung tumor, cells", "result": "not effective"}, {"measurement": "toxicity (cell viability), words", "setting": "JB6 P+ cells [1]; 100 μM", "result": "maximum toxicity"}, {"measurement": "toxicity (cell viability), words", "setting": "JB6 P+ cells [1]; concentrations lower than 10 μM", "result": "did not affect cell viability"}, {"measurement": "effect on UV-induced skin thickening, words", "setting": "[2]; wild type mice", "result": "statistical difference from the UV control on day 8 onward"}, {"measurement": "effect on UV-induced skin thickening, words", "setting": "[2]; β2-AR knockout mice", "result": "greater effects in the knockout mice"}, {"measurement": "SRB Assay Log IΔ2*PSD", "setting": "JB6 P+ cells [3]", "result": "-4.89 ± 0.09 log [M]"}, {"measurement": "effect on EGF-mediated transformation of JB6 P+ cells, words", "setting": "JB6 P+ cells [4]", "result": "completely prevents"}, {"measurement": "IC50", "setting": "JB6 P+ cells [4]; read-out: IC50, inhibition of EGF-mediated transformation", "result": 782, "unit": "nM"}]}]}
